The text below walks through data of paper PMC9268102, “Design, Synthesis and Biological Evaluation of 1,3,5-Triazine Derivatives Targeting hA1 and hA3 Adenosine Receptor” (Molecules, 2022).

Holding throughout (type): cell-based
Experiment [1] has as its system A549 cells. The experiment can be described thus: Live-dead assay (calcein/EthD-1) by flow cytometry. The conditions noted are these: 48 h. How it is done:
A live cell assay and a dead cell assay were carried out using a mixture of two fluorescent dyes: calcein (green dye for live cells) and ethidium homodimer-1 (EthD-1, red dye for dead cells). The cells were washed and stained with calcein and EthD-1 before conducting imaging fluorescence microscopy and flow cytometry experiments. When treated with 20 μM 9c, we observed a drastic decrease in the number of live cells (green) and a slight increase in the number of dead cells (red).
The A549 cells were seeded in 6-well plates at a density of 1 × 10^6 cells per well, and the cells underwent treatment with the compound (20 and 40 μM) for 48 h. The A549 cells were analyzed using fluorescent dyes for both living and dead cells with the LIVE/DEAD kit (Thermo Fisher Scientific, Waltham, MA, USA). For cell staining, we used EthD-1 and calcein by referring to the manufacturer’s instructions. Images were captured with an EVOS M5000 Imaging System (Thermo Fisher Scientific Inc., Waltham, MA, USA).

Experiment [2] concerns A549 cells. Put plainly: Mitochondrial membrane potential by TMRM flow cytometry. The conditions noted are these: 48 h, control 93.8%. The method, then:
ROS-induced oxidative stress can cause the rapid depolarization of the inner mitochondrial membrane potential (ΔΨm) and, as a result, impairment of oxidative phosphorylation. Using tetramethylrhodamine methyl ester (TMRM) measurements, we investigated how mitochondrial membrane potential was affected by 9c. A549 cells were exposed to 9c following incubation with TMRM. Afterward, flow cytometry was employed to calculate the intensity of TMRM binding in the healthy membrane.
A549 cells were incubated with a fluorescent indicator, specifically 100 nM tetramethylrhodamine methyl ester perchlorate (TMRM, Thermo Fisher Scientific, Waltham, MA, USA), to determine the mitochondrial membrane potential. The A549 cells treated with the compound were harvested after 48 h, washed in PBS, and re-suspended in FACS buffer (PBS supplemented with 2 percent fetal bovine serum). A flow cytometer (BD FACSVerse, BD Biosciences, San Jose, CA, USA) and the FlowJo software (FlowJo LLC, Ashland, OR, USA) were used to analyze the cells. […] Intracellular fluorescence measurements involved the use of a flow cytometer (BD FACSVerse, BD Biosciences, San Jose, CA, USA) and the FlowJo software (Version 10, TreeStar, Ashland, OR, USA).

Another experiment concerns NCI-H1299 cells. The experiment can be described thus: Cell viability (MTS) assay in NCI-H1299 cells. Particulars: Homo sapiens, 48 h. The method, then: To test the effect of the compounds in terms of cell growth regulation in lung cancer cell lines such as A549 and NCI-H1299 cells, these cells were treated in 96-well plates for 48 h with the compounds at concentrations ranging from 0 μM to 100 μM. […] Therefore, we decided to perform an additional experiment with 9c.
A549 and NCI-H1299 cells were seeded in 96-well plates at a density of 1 × 10^5 cells per well for 24 h before being exposed to compounds at various concentrations. After 48 h of compound treatment, the CellTiter 96 AQueous One Solution Cell Proliferation Assay Kit (Promega, Madison, WI, USA) was used to conduct a cell viability assay. The cells were incubated with solution reagents for 2 h at 37 °C before being measured for absorbance at 490 nm using a Synergy HTX Multi-Mode microplate reader (BioTek Instruments, Inc., Winooski, VT, USA).

For experiment [3], the system named is A549 cells. The experiment can be described thus: Intracellular ROS by H2DCF-DA flow cytometry. The conditions noted are these: 48 h, control 1.26%. From the text:
Although reactive oxygen species (ROS) play an important role in regulating normal cellular processes, abnormal ROS levels contribute to the development of a variety of human diseases, including cancer. Because of their accelerated metabolism, cancer cells have higher ROS levels than normal cells. Nevertheless, the high ROS content of cancer cells makes them more susceptible to oxidative stress-induced cell death, which can be used to target cancer cells selectively. Flow cytometry was used to determine whether 9c induces ROS generation in A549 cells by examining the results. The experiment was conducted with H2DCF-DA as a fluorescent probe. […] Next, we determined the effect of 9c in regulating mitochondrial ROS.
A549 cells were incubated with a fluorescent indicator, specifically 100 nM tetramethylrhodamine methyl ester perchlorate (TMRM, Thermo Fisher Scientific, Waltham, MA, USA), to determine the mitochondrial membrane potential. The A549 cells treated with the compound were harvested after 48 h, washed in PBS, and re-suspended in FACS buffer (PBS supplemented with 2 percent fetal bovine serum). […] Intracellular fluorescence measurements involved the use of a flow cytometer (BD FACSVerse, BD Biosciences, San Jose, CA, USA) and the FlowJo software (Version 10, TreeStar, Ashland, OR, USA).

As to `COc1cc(Nc2nc(N)nc(-c3ccc(O)cc3)n2)ccc1Cl` [Compound 9c, 4-{4-amino-6-[(4-chloro-3-methoxyphenyl)amino]-1,3,5-triazin-2-yl}phenol], the entries for the “Dead cells (quadrant Q4)” value with A549 cells [1] (20 μM) and in the experiment with A549 cells [1] (40 μM) were 34.4% and 46.1%, respectively. Also, the “TMRM-positive intensity, TMRM (+)” value in the experiment on A549 cells [2] (20 μM) was found to be 74.6%; in the experiment with A549 cells [2] (40 μM) it was 52.3%. Besides, the viability at 25 µM with NCI-H1299 cells stood at 68.8%. Besides, the entries for the “ROS level (H2DCF-DA positive)” value in the experiment on A549 cells [3] (20 μM) and with A549 cells [3] (40 μM) were 7.31% and 22.6%, respectively.
